Assay results as given in patent US11926845B2, “Cell culture method and automatic cell culture apparatus” (Hitachi, Ltd., priority 2020, dated 2024).

Tests used:
[1] = test system: human iPS cells (201B7 strain); assay: hCG secretion into culture supernatant (ELISA) of 201B7 strain cultured on coated planar mesh; assay type: cell-based
Method: In the present example, the human iPS cells (201B7 strain) were cultured by using a culture substrate in which the planar mesh made of nickel was coated with parylene or Au, and an effect of the ROCK inhibitor on cell differentiation was investigated.
A cell culture substrate was prepared in the same procedure as in the first example. The i-Matrix (Nippi Inc.) adjusted to a concentration of 50 ng/μl as a scaffold material of cells was added so as to cover the mesh and the mixture was treated at 4° C. for 3 days. Thereafter, after i-Matrix was removed, and the washing was performed with an Essential 8 medium (GIBCO Co.), the human iPS cells (201B7 strain) was adjusted in the Essential 8 medium so as to be 1×10^5/ml, and an iPS cell suspension containing 10 μM of the ROCK inhibitor (Y-27632, Wako Pure Chemical Co.) was added on the mesh in the same manner as the scaffold material, and the cells were incubated at 37° C. in the cell culture apparatus adjusted to the CO2 concentration of 5%.
After 24 hours from seeding, a total amount of iPS cell suspension was removed and replaced with a new Essential 8 medium, so that the ROCK inhibitor was completely removed once. Then, every 4 days, half the amount of culture supernatant was recovered, and the amount of culture supernatant was maintained by adding a new Essential 8 medium in an amount equal to a removed amount. The ROCK inhibitor (Y-27632, Wako Pure Chemical Co.) was added to a part of the medium of the cell culture substrate on which the 201B7 strain is seeded from Day 9 of culturing or Day 13 of the culturing so that the final concentration of the ROCK inhibitor was 20 μM, and the culturing was performed for 3 weeks.
(§1) A secretion amount of hCG, which is one of trophoblast differentiation markers, was quantified by using the recovered culture supernatant. For the quantification, a value of OD450 was detected with an absorbance plate reader (Corona Electric Co. Ltd.) by using a Human hCG ELISA Kit (Abcam Co.). Details of an ELISA reaction and a measurement method followed a manual of a kit.

253G1 strain = assay: hCG secretion into culture supernatant (ELISA) of 253G1 strain cultured on coated planar mesh; assay type: cell-based, human; details: for secretion amount of hCG, increase as compared with the case where the ROCK inhibitor was not added / secretion amount of hCG, course after the increase: 253G1 strain; for secretion amount of hCG, course after the increase: after Day 17
Method: Preparation of the cell culture substrate and seeding of the iPS cells were carried out in the same manner as in the second example. After 24 hours from seeding, a total amount of iPS cell suspension was removed and replaced with a new Essential 8 medium, so that the ROCK inhibitor was completely removed once. Then, every 4 days, half the amount of the culture supernatant was recovered, and the amount of culture supernatant was maintained by adding a new Essential 8 medium in an amount equal to a removed amount. The ROCK inhibitor (Y-27632, Wako Pure Chemical Co.) was added to a part of the medium of the cell culture substrate on which the 253G1 strain is seeded from Day 9 of culturing or Day 13 of the culturing so that a final concentration was 20 μM, and the culturing was performed for 3 weeks.
as §1, with “The secretion” for “A secretion”, “quantification, the” for “quantification, a”, “detected by” for “detected with”, “Electric Co.)” for “Electric Co. Ltd.)”

## C[C@@H](N)[C@H]1CC[C@H](C(=O)Nc2ccncc2)CC1 [ROCK inhibitor, Y-27632]
[1]; 201B7 strain on planar mesh coated with parylene or Au, re-addition of the ROCK inhibitor
  differentiation into trophoblast: promoted
[1]; 201B7 strain, mesh coated with Au, 20 μM added from Day 9 of culturing, on Day 17
  secretion amount of hCG, increase as compared with the case where the ROCK inhibitor was not added: about twice
[1]; 201B7 strain, mesh coated with Au, 20 μM added from Day 9 of culturing, on Day 21
  secretion amount of hCG, increase as compared with the case where the ROCK inhibitor was not added: four times
[1]; 201B7 strain, mesh coated with Au, 20 μM added from Day 13 of culturing, after Day 17
  secretion amount of hCG, course after the increase: the secretion amount was maintained thereafter
[1]; 201B7 strain, mesh coated with Au, 20 μM added from Day 13 of culturing, on Day 17
  secretion amount of hCG, increase as compared with the case where the ROCK inhibitor was not added: about three times
[1]; 201B7 strain, mesh coated with parylene, 20 μM added from Day 9 of culturing, after Day 13
  secretion amount of hCG, course after the increase: the secretion amount was maintained thereafter
[1]; 201B7 strain, mesh coated with parylene, 20 μM added from Day 9 of culturing, on Day 13
  secretion amount of hCG, increase as compared with a case where the ROCK inhibitor was not added: about twice
[1]; 201B7 strain, mesh coated with parylene, 20 μM added from Day 13 of culturing, on Day 17
  secretion amount of hCG, increase as compared with the case where the ROCK inhibitor was not added: about twice
[1]; 201B7 strain, mesh coated with parylene, 20 μM added from Day 13 of culturing, on Day 21
  secretion amount of hCG, increase as compared with the case where the ROCK inhibitor was not added: about three times
253G1 strain; 253G1 strain on planar mesh coated with parylene or Au, addition of the ROCK inhibitor
  differentiation into trophoblast cells: promoted
253G1 strain; mesh coated with Au, 20 μM added from Day 9 of culturing, on Day 17
  secretion amount of hCG, increase as compared with the case where the ROCK inhibitor was not added: about twice
253G1 strain; mesh coated with Au, 20 μM added from Day 9 of culturing, on Day 21
  secretion amount of hCG, increase as compared with the case where the ROCK inhibitor was not added: about three times
253G1 strain; mesh coated with Au, 20 μM added from Day 13 of culturing
  secretion amount of hCG, course after the increase: the secretion amount was maintained thereafter
253G1 strain; mesh coated with Au, 20 μM added from Day 13 of culturing, on Day 17
  secretion amount of hCG, increase as compared with the case where the ROCK inhibitor was not added: five times
253G1 strain; mesh coated with parylene, 20 μM added from Day 9 of culturing
  secretion amount of hCG, course after the increase: the secretion amount was maintained thereafter
253G1 strain; mesh coated with parylene, 20 μM added from Day 9 of culturing, on Day 17
  secretion amount of hCG, increase as compared with the case where the ROCK inhibitor was not added: about ten times
253G1 strain; mesh coated with parylene, 20 μM added from Day 13 of culturing, on Day 21
  secretion amount of hCG, increase as compared with the case where the ROCK inhibitor was not added: three times
